In patent publication US5925667A, “Pyrrolidine derivative, anti-ulcer drug, and antibacterial drug” (Shiseido Co., Ltd., priority 1997, dated 1999):

Tests used:
[1] = system: isolated gastric fundic gland; experiment: CAP: Acid Secretion Inhibition Test In Vitro ([14C]-aminopyrine uptake test); assay type: cell-based, male Japanese White rabbit; conditions: Oryctolagus cuniculus; final concentration 10^-5 M, histamine 10^-5 M; read-out: acid secretion inhibitory rate (CAP)
Description: CAP: Acid Secretion Inhibition Test In Vitro
The acid secretion inhibitory activity in a cell level is studied. It can also be used for studying the mechanism of the effect.
ii-a) Preparation of isolated gastric fundus gland suspension
First, an isolated gastric fundic gland sample was prepared. Namely, a male Japanese White rabbit (2.5 to 3 kg) was anesthetized to death with Nembutal™ and then the abdomen was incised. Immediately thereafter, the stomach was removed and, after its pyloric and cardiac antrum were severed, incised along its greater curvature into two sheets. The gastric contents adhering to the mucosal surface was washed out with ice-cooled PBS (-) and then carefully washed therein. The gastric wall was spread on a cork board with its mucosal surface facing up and the feed and mucus thereon were completely removed with sterile gauze. The mucosa was separated therefrom by a spatula and then collected in ice-cooled PBS (-). After being washed twice with PBS (-), the mucosa was minced into 2-3 mm^3 pieces by scissors. These pieces were further washed twice with a nutrient solution. The nutrient solution comprises 132.4 mM of NaCl, 5.4 mM of KCl, 5 mM of Na2 HPO4.12H2 O, 1 mM of NaH2 PO4.2H2,
1.2 mM of MgSO4, 1 mM of CaCl2, 25 mM of HEPES, 2 mg/ml of glucose, and 1 mg/ml of BSA.
Into 70 ml of the nutrient solution containing 1 mg/ml of collagenase, minced mucosal pieces were dispersed and intensely stirred in a conical flask with a stirrer at 37° C. for 40 to 60 minutes. During this period, 100% O2 was sprayed on the nutrient solution surface and the pH was appropriately measured such that it was immediately adjusted to pH 7.4, when the value was therebelow, with a base. The nutrient solution was added to the reaction solution so as to attain the total amount of about 200 ml. After being filtered through a mesh, the suspension was divisionally introduced into 50 ml centrifuge tubes and left for 15 minutes such that gastric fundic gland was deposited. The supernatant was repeatedly removed by an aspirator, dispersed in the nutrient solution, and then left such that the gastric fundic gland was washed three times. At this time, without using a pipette, the suspension was alternately introduced into two centrifuge tubes so as to effect dispersion. The number of cells was counted under microscope and adjusted to 1.6×10^6 cells/ml.
ii-b) [^14 C]-aminopyrine uptake test.
Then, [^14 C]-aminopyrine uptake test was performed. After an Eppendorf tube was weighed, 10 μl (final concentration: 10^-5 M) of histamine dissolved in the above-mentioned nutrient solution, 10 μl (final concentration: 10^-5 M) of the test compound dissolved in DMSO, and 10 μl (final concentration: 0.05 μCi/ml) of [^14 C]-aminopyrine diluted with the nutrient solution were introduced therein and then 970 μl of the isolated gastric fundic gland suspension prepared above was added thereto. Subsequently, this mixture was shaken at 37° C. for 40 minutes at 125 cycles/minute. After being centrifuged for 30 seconds, 200 μl of its supernatant was collected into a mini-vial, while the rest was removed by an aspirator. The gland pellet was completely dried as the tube with its lid being opened was kept for one night in a drying oven at 80° C. and then the lid was closed and the weight was determined at room temperature. Then 100 μl of 1N KOH was added thereto and the tube with its lid being closed was treated at 60° C. for 1 to 2 hours so as to dissolve the pellet. Then, the contents thereof were transferred to a mini-vial. Into the mini-vial containing the supernatant or gland pellet, 4 ml of Atomlite™ was added and then the radioactivity was measured by a liquid scintillation counter. Here, after the radioactivity of the gland pellet was corrected by using a sample in which 20 mM of NaSCN was added so as to cancel the hydrogen ion concentration gradient, the integration ratio of aminopyrine specifically trapped by the gland pellet was calculated. […]

[2] = system: Slc:ICR mice; set-up: species or system male Slc:ICR mice; conditions: mouse, in vivo
Description: AT: Single Dose Toxicity Pretest
Male Slc:ICR mice (5-week-old) were used. Each group has 3 to 5 mice and each mouse was fasted, but allowed free access to water, for 4 to 5 hours from 9 a.m. in the test day. Then, 2,000 mg/10 ml/kg of the sample compound dissolved or suspended in an aqueous solution of 0.5% sodium carboxymethyl cellulose was orally administered thereto. To a control, only the vehicle was administered. […] The body weight was measured before and after the fasting as well as at the same time everyday. The dead animals were immediately subjected to autopsy and their organs were observed by naked eyes. Also, the living animals were sacrificed with ether or carbon dioxide one week after the administration and then their organs were observed by naked eyes.
The toxicity at the single dose of 2,000 mg/kg of the sample compound was expressed as being classified into 5 levels.
5: Mortality rate is 0%; no toxicity is found at all both in behavior and organs.
4: Mortality rate is 0%; while no toxicity is found in organs, slight toxicity is observed in behavior or body weight increase.
3: While there is a dead animal (though not all the animals are dead), no toxicity is found in organs.
2: Regardless of whether there is a dead animal or not, toxicity is found in organs.
1: All the animals are dead.

[3] = system: stress ulcer; experiment: WIS: Restraint and Water Immersion Stress-Induced Ulcer Inhibition Test; assay type: in vivo, male Crj:SD or Slc:SD rats; conditions: rat, 100 mg/kg oral, 7 h water immersion stress; read-out: ulcer formation inhibitory rate (WIS)
Description: WIS: Restraint and Water Immersion Stress-Induced Ulcer Inhibition Test
The degree of inhibition of the stress ulcer formation is tested.
Male Crj:SD or Slc:SD rats (6 to 7-week-old) were fasted overnight, but allowed free access to water. Each group has 5 to 8 of these rats. The sample compound was dissolved or suspended in an aqueous solution of 0.3% sodium carboxymethylcellulose or 0.05% Tween 80 and then was orally administered (100 mg/10 ml/kg. To a control group, the vehicle was administered. 10 minutes later, the rats were placed in a stress cage and immersed to the level of xipfoid process in a water bath (21° C.) for 7 hours. At the end of the stress, the rats were sacrificed by inhalation of ether or carbon dioxide. Then, the stomach of each was removed, inflated by injecting 10 ml of 5% formalin neutral buffer solution, and immersed in 1% formalin neutral buffer solution for 30 minutes or more to be fixed. The stomach was incised along the greater curvature and then the length of each erosion in the glandular portion was determined under dissecting microscope. The sum of the length of erosions per stomach was defined as ulcer index (UI).
The effect obtained when 100 mg/kg of the sample compound had been administered was expressed as ulcer formation inhibitory rate (%) as follows:
ulcer formation inhibitory rate (%)=(1-(UI in sample group/UI in control group))×100

[4] = MTT: Cell Damaging and Protecting Effect Test; assay type: cell-based, male Japanese White rabbit; conditions: rabbit, gastric mucosa cells, final concentration 10^-4 M, smaller value is better, read-out: cell damaging rate (MTT)
From the text: MTT: Cell Damaging and Protecting Effect Test
It is confirmed that there is no toxicity in cell level. Those having a toxicity in cell level are inappropriate as an anti-ulcer drug.
A male Japanese White rabbit (2.5 to 3 kg) was anesthetized to death by Nembutal™ and, immediately thereafter, its stomach was removed. The greater curvature of the stomach was incised so as to remove the stomach contents therefrom. After the mucosal surface was washed with HBSS (Hanks' Balanced Salt Solution), the stomach in ice-cooled HBSS was transferred to a laboratory. Then, after the pyloric antrum was removed, the gastric corpus mucosa was separated by a spatula and then minced into 2 to 3 mm^3 pieces in BME (Basal Medium Eagle). Thereafer, these pieces were shaken at 120 to 130 cycles/minute for 15 minutes at 37° C. in BME 60 ml containing 280 U/ml of dispase and 30 to 50 U/ml of collagenase. Here, the concentration of collagenase was appropriately changed for each lot in view of the state of cells. The pieces were washed twice with EBSS (Earle's Balanced Salt Solution) containing 1 mM of EDTA and then shaken in MEM (Minimum Essential Medium) containing 1 mM of EDTA at 37° C. for 5 minutes. Subsequently, they were shaken in the dispase and collagenase having the same concentrations as those mentioned above for 15 minutes so as to remove the supernatant and then further shaken at 37° C. for 50 to 60 minutes at 120 to 130 cycles/minute. Then, after being washed twice with HBSS, Ham F12 containing 2% of Ultrocer G™ was used to attain the concentration of 1×10^6 cells/ml. Thus formed suspension was dispensed in each well of a 96-well plate by 200 μl. The plate was incubated in the atmosphere composed of 5% CO2 and 95% air at 37° C. for three days so as to attain a confluent state and then subjected to MTT assay.
The sample compound was dissolved in DMSO so as to attain a concentration of 10^-2 M and then diluted with HBSS containing 2% of Ultrocer G™ so as to attain a final concentration of 10^-4 M. To each group, which 8 wells were used for, 10 μl of MTT reagent was added immediately after 100 μl of the medium in each well was exchanged for same volume of the resulting solution of the sample compound. After being incubated in an atmosphere composed of 5% CO2 and 95% air at 37° C. for 4 hours, thus formed solution was centrifuged and then its supernatant was discarded. Subsequently, 100 μl of 100% ethanol was added to the residue so as to dissolve MTT formazan. Then, the absorbance (OD: 570 to 630) was measured by a microplate reader. This method utilizes a phenomenon in which MTT is changed to MTT formazan only by mitochondria of living cells so as to change color.
The cell damaging or cell protecting effect of the sample compound at the final concentration of 10^-4 M was expressed as cell damaging rate (%) as follows:
cell damaging rate (%)=(1-(absorbance in sample group/absorbance in control group))×100
Accordingly, the smaller value is better in the cell damaging rate.

| SMILES | inhibition at 10 µM [1] | toxicity at single dose (AT), 5 levels [2] | inhibition in vivo at 100 mg/kg [3] | cytotoxicity at 4 h, 100 µM [4] |
| --- | --- | --- | --- | --- |
| CCN1CCCC1CNC(=O)c1ccc(OC/C=C(\C)CCC=C(C)C)c(OC)c1 (stereo not drawn) [Example 16, 1-ethyl-2-(4-geranyloxy-3-methoxybenzoylaminomethyl)pyrrolidine] | 99.8% | 4 | 72% | – |
| CCN1CCCC1CNC(=O)c1ccc(OC/C=C(/C)CCC=C(C)C)cc1 (stereo not drawn) [Example 4, 1-ethyl-2-(4-neryloxybenzoylaminomethyl)pyrrolidine] | 100% | 5 | 68% | – |
| CCN1CCCC1CNC(=O)c1cc(OC)c(OC)c(OCC=C(C)C)c1 (stereo not drawn) [Example 23, 1-ethyl-2-(3,4-dimethoxy-5-prenyloxybenzoylaminomethyl)pyrrolidine] | 73.1% | – | 79% | -3% |
| CCN1CCCC1CNC(=O)c1ccc(OCC=C(C)C)cc1OCC=C(C)C (stereo not drawn) [Example 5, 1-ethyl-2-(2,4-diprenyloxybenzoylaminomethyl)pyrrolidine] | 100% | – | 70% | 9% |
| CCN1CCCC1CNC(=O)c1cc(OCC=C(C)C)cc(OCC=C(C)C)c1 (stereo not drawn) [Example 8, 1-ethyl-2-(3,5-diprenyloxybenzoylaminomethyl)pyrrolidine] | 100% | 5 | 81% | – |
| CCN1CCCC1CNC(=O)c1cccc(OC)c1OC/C=C(\C)CCC=C(C)C (stereo not drawn) [Example 17, 1-ethyl-2-(2-geranyloxy-3-methoxybenzoylaminomethyl)pyrrolidine] | 100% | – | 82% | 22% |
